Laboratory results taken from US10787650B2, “Artificial bioluminescent enzymes” (NATIONAL INSTITUTE OF ADVANCED INDUSTRIAL SCIENCE AND …, priority 2015, dated 2020).

Key:
Fridericia luciferase = conditions: cited from earlier work
ALuc16 [1] = experiment: Metal cation-driven variance of bioluminescence spectra of ALuc16; format: biochemical; conditions: 100 μg/mL cation
Procedure: The corresponding bioluminescence spectra (FIG. 6(B)) were also measured using the same method as that of FIG. 6(A). In a 200 μL PCR tube, 50 μL of the mixture of ALuc16 and a metal cation (Ca(II), Fe(III), Ni(II), Zn(II), Mg(II), or Cr(VI); concentration: 100 μg/mL) in the metal-cation-free Tris-HCl buffer (Solution A) was further mixed with 10 μL of an nCTZ solution (Solution B). The tube was immediately moved into the chamber of a precision spectrophotometer (AB-1850, ATTO) (FIG. 6(B)), and the consequent spectra were taken in an integration of 30 seconds.

ALuc16 [2] = experiment: Cation-driven long-term stability of optical intensities of ALuc16; format: biochemical
Procedure: The long-term stability of optical intensities was estimated by the same method as that of FIG. 6(A) (FIG. 8(A)). The microplate was placed in the chamber of LAS-4000, and the optical intensities were monitored every 5 minutes, after substrate injection, for a duration of 60 minutes.

molecular strain sensor = experiment: Metal ion effects on luminescence of the purified molecular strain sensor; format: biochemical; conditions: within 1 minute after substrate addition
Procedure: For this experiment, the concentration of the purified molecular strain sensor was adjusted to 0.1 mg/mL by dilution in a Tris-HCl buffer (pH 8.2). Rapamycin was added to the molecular strain sensor and the final concentration was adjusted to […]. After that, the resultant was diluted with metal ion-containing Tris-HCl buffer (pH 8.2) to make a 0.01 mg/mL molecular strain sensor solution. At this time, the final concentration of the metal ion added was 10 μg/mL. The solution was transferred to a 96-well microplate, and, while the substrate solution was added from a microinjector, luminescence intensities were measured with or without a metal ion.
The luminescence stability of the luminescent probe dependent on different metal ion concentrations was studied by a similar technique (FIG. 23). The substrate solution was added from a microinjector in the same manner as above, and then changes in luminescence intensity over 1 minute were measured.

[3] = Luminescence activity of novel artificial bioluminescent enzymes (COS-7 cell lysate); format: biochemical, African green monkey; conditions: COS-7 lysate, native coelenterazine
Procedure: African green monkey kidney-derived COS-7 cells were cultured using a 96-well microplate. The COS-7 cells were grown until occupying 90% of the bottom-surface area of the culture plate, and, as shown in FIG. 19 and FIG. 20, were each transiently transfected with a pcDNA 3.1(+) vector (Invitrogen) encoding each luminescent enzyme with a lipofection reagent (TransIT-LT1, Mirus). After that, the cells were further cultured for about 1 day. After the culture, cell lysates were prepared using a cell lysis agent (Lysis buffer, Promega), and 5 μL each of the cell lysates was taken from each well and transferred to a 96-well microplate for measurement. An assay buffer (50 μL) containing native coelenterazine was simultaneously added to each well using a multichannel pipette. Immediately after the addition of the assay buffer, the microplate was moved into the black box of an image analyzer (LAS-4000, FujiFilm), and luminescence images were measured with a CCD camera (FIG. 19 and FIG. 20).

[4] = Enzymatic activity confirmation: temporal stability in luminescence; format: biochemical, African monkey; conditions: compared to existing ALuc or conventional copepod luciferases
Procedure: The enzymatic activity of ALuc may be examined according to the following method. First, using a known lipid reagent for gene introduction, an expression vector encoding ALuc is introduced into African monkey-derived COS-7 cells. As a control, an expression vector having a known GLuc without any mutation is also introduced into the cells in the same manner. At a predetermined time (from 10 hours to 20 hours, for example, 16 hours) after the introduction of the vector, a cell lysate is prepared using a known cell lysis reagent.
After that, the cell lysate is mixed with a known substrate solution containing coelenterazine, and its color intensity, temporal stability in luminescence, and the like are measured.
The luminescence intensity may be found by measuring the intensity at a specific wavelength using a conventional luminescence spectrophotometer after addition of a known substrate. By performing the measurement every minute, the temporal stability in luminescence can be evaluated based on the temporal change in luminescence. In order to measure a shift to a longer wavelength, scanning of the entire wavelength is required.

[Ca+2].[Cl-].[Cl-] [Ca(II)]
effect on activities of Fridericia luciferase (Fridericia luciferase): elevate | blue shift of the bioluminescence spectrum (ALuc16 [1]): 2 nm | effect on long-term stability of bioluminescence intensities (ALuc16 [2]; 60 minutes after substrate injection): prolonged the bioluminescence intensities in a concentration-dependent manner | optical intensity retained (ALuc16 [2]; after 60 minutes): 4% | initial optical intensity sustained (ALuc16 [2]; for 13 minutes after nCTZ injection): 60% | effect of increasing concentration on overall luminescence intensity (molecular strain sensor): reduces an overall luminescence intensity | effect of increasing concentration on S/N ratio (molecular strain sensor; with/without rapamycin): improves an S/N ratio

B1: ALuc45: artificial luciferase, SEQ ID NO: 5 (protein)
chain: MMGIKVLFALVCLALVQAKPTEDEDEDDIVDVVGNFWAIGVDNDRDFTISADRGKLPGKKLPKEVLIEIEANAKKAGCTRGCLICLSKIKCTAKMKKWLPGRCHSYEGDKDTGQGGIGEPIVDAPEIPGFKDLTPMEQFIAQVDLCADCTTGCLKGLANVKCSALLKKWLPDRCASFADKIQKEVDNIKGLAGS
luminescence intensities as compared to conventional ALucs (e.g., ALuc16 and ALuc30) [3]: even stronger luminescence intensities | luminescence stability [4]: remarkably stable luminescence signal
